Experimental data from patent US6645983B1, “Pharmaceutical compositions comprising 4-quinolones for treating cancers” (Laboratoire L. Lafon, priority 1999, dated 2003).

How the values were obtained:
HCT-15 = assay: MTT test, cytotoxic activity on non-clonogenic cell lines; type: cell-based; settings: Homo sapiens, 10^−5 M, 72 hours of incubation, control condition = 100%, mean value, read-out: mean optical density as percentage of control, HCT-16
Method: (§1) The principle of the MTT test is based on the mitochondrial reduction, by the metabolically active live cells, of the yellow-colored product MTT (3-(4,5-dimethylthiazol-2-yl)-2,5-diphenyltetrazolium bromide) to a blue-colored product, formazan. The amount of formazan thus obtained is directly proportional to the amount of live cells present in the culture well(s). This amount of formazan is measured by spectrophotometry.
(§2) The cell lines are maintained as a monolayer culture at 37° C. in stoppered culture dishes containing MEM 25 MM HEPES (Minimum Essential Medium) base medium. This medium is suited to the growth of a range of various mammalian diploid or primary cells. This medium is then supplemented with:
(§3) The 12 human cancer cell lines which were used were obtained from the American Type Culture Collection (ATCC, Rockville, Md., USA). These 12 cell lines are:
(§4) Experimentally, 100 μl of a cell suspension containing 20 000 to 50 000 (depending on the cell type used) cells/ml of culture medium are inoculated -in 96-well flat-bottomed multi-well plates and are left to stand in an incubator at 37° C., 5% CO2 and 70% humidity. After an incubation time of 24 hours, the culture medium is replaced with 100 μl of fresh medium containing either the various test compounds—at concentrations varying from 10^−5 to 10^−10 M—or the solvent having served for dissolving the products to be tested (control condition). […] The microplates are thus incubated for 3 hours at 37° C., then centrifuged for 10 minutes at 400 g. The yellowish solution of MTT is removed and the blue formazan crystals formed in the cell region are dissolved in 100 μl or DMSO. The microplates are then shaken for 5 minutes. […] Software incorporated in the spectrophotometer calculates the average optical density values and the standard deviation (SD) and standard error of mean (SEM) values.

LoVo = assay: as above; type: cell-based; settings: Homo sapiens, 10^−5 M, 72 hours of incubation, control condition = 100%, mean value, read-out: mean optical density as percentage of control, LoVo
Method: as §1, §2, §3, §4

PC-3 = assay: as above; type: cell-based; settings: Homo sapiens, 10^−5 M, 72 hours of incubation, control condition = 100%, mean value, read-out: mean optical density as percentage of control, PC-3
Method: as §1, §2, §3, §4

U-373MG = assay: as above; type: cell-based; settings: Homo sapiens, U373 MG; 10^−5 M, 72 hours of incubation, control condition = 100%, mean value; read-out: mean optical density as percentage of control, U-373MG
Method: as §1, §2, §3, §4

A549 = assay: as above; type: cell-based; settings: Homo sapiens, 10^−5 M, 72 hours of incubation, control condition = 100%, mean value, read-out: mean optical density as percentage of control, A549
Method: as §1, §2, §3, §4

MCF7 = assay: as above; type: cell-based; settings: Homo sapiens, 10^−5 M, 72 hours of incubation, control condition = 100%, mean value, read-out: mean optical density as percentage of control, MCF7
Method: as §1, §2, §3, §4

T-47D = assay: as above; type: cell-based; settings: Homo sapiens, T47D; 10^−5 M, 72 hours of incubation, control condition = 100%, mean value; read-out: mean optical density as percentage of control, T-47D
Method: as §1, §2, §3, §4

U-87MG = assay: as above; type: cell-based; settings: Homo sapiens, U-87 MG; 10^−5 M, 72 hours of incubation, control condition = 100%, mean value; read-out: mean optical density as percentage of control, U-87MG
Method: as §1, §2, §3, §4

A-427 = assay: as above; type: cell-based; settings: Homo sapiens, 10^−5 M, 72 hours of incubation, control condition = 100%, mean value, read-out: mean optical density as percentage of control, A-427
Method: as §1, §2, §3, §4

SW1088 = assay: as above; type: cell-based; settings: Homo sapiens, 10^−5 M, 72 hours of incubation, control condition = 100%, mean value, read-out: mean optical density as percentage of control, SW1088
Method: as §1, §2, §3
SW1088 (code ATCC: HTB-12) which is an astro-cytoma,
as §4

[1] = Determination of the maximum tolerated dose (MTD); settings: B6D2F1/Jico, mouse, in vivo, ip; single intraperitoneal administration, doses 2.5 to 160 mg/kg, survival over 14 days
Method: The evaluation of the maximum tolerated dose was performed on 4- to 6-week-old B6D2F1/Jico mice. The compounds were administered intraperitoneally at increasing doses ranging from 2.5 to 160 mg/kg. The value of the MTD (expressed in mg/kg) is determined from the observation of the survival rate of the animals over a 14-day period after a single administration of the product under consideration. The change in weight of the animals is also monitored during this period. When the MTD value is greater than 160 mg/kg, the MTD value is considered as being 160 mg/kg by default.

J82 = assay: MTT test, cytotoxic activity on non-clonogenic cell lines; type: cell-based; settings: Homo sapiens, 10^−5 M, 72 hours of incubation, control condition = 100%, mean value, read-out: mean optical density as percentage of control, J82
Method: as §1, §2, §3
(§5) J82 (code ATCC: HTB-1) and T24 (code ATCC: HTB-4) which are two bladder cancers,
as §4

T24 = assay: as above; type: cell-based; settings: Homo sapiens, T-24; 10^−5 M, 72 hours of incubation, control condition = 100%, mean value; read-out: mean optical density as percentage of control, T24
Method: as §1, §2, §3, §5, §4

Row | SMILES | viability at 10 µM (HCT-15) | viability at 10 µM (LoVo) | viability at 10 µM (PC-3) | viability at 10 µM (U-373MG) | viability at 10 µM (A549) | viability at 10 µM (MCF7) | viability at 10 µM (T-47D) | viability at 10 µM (U-87MG) | viability at 10 µM (A-427) | viability at 10 µM (SW1088) | MTD at 14 day [1] | viability at 10 µM (J82) | viability at 10 µM (T24)
1 | COc1ccc(-c2c[nH]c3cc(OC)c(OC)cc3c2=O)cc1 [CRL8354, 6,7-Dimethoxy-3-(4-methoxyphenyl)-1,4-dihydro-4-quinolinone] | 95.9% | 98.4% | 93.7% | 97.7% | 98.5% | 102% | 104% | 102% | 97.2% | 93.2% | > 160 mg/kg | 98.2% | 91.4%
2 | COc1cc2[nH]cc(-c3ccccc3)c(=O)c2cc1OC [CRL8355, 6,7-Dimethoxy-3-phenyl-1,4-dihydro-4-quinolinone] | 99.5% | 98.7% | 100% | 97.7% | 98.6% | 94.8% | 98.5% | 94.4% | 103% | 97.5% | > 160 mg/kg | 94.9% | 89.4%
3 | COc1ccc(-c2cn(CCCN(C)C)c3cc(OC)cc(OC)c3c2=O)cc1 [CRL8357, N-[3-(Dimethylamino)propyl]-5,7-dimethoxy-3-(4-methoxyphenyl)-1,4-dihydro-4-quinolinone] | 79.5% | 97.9% | 85.6% | 96% | 73.3% | 95.8% | 94.1% | 84.4% | 59.5% | 69.6% | 80 mg/kg | 84.7% | 99%
4 | COc1ccc(-c2c[nH]c3cc(OC)ccc3c2=O)cc1 [CRL8358, 7-Methoxy-3-(4-methoxyphenyl)-1,4-dihydro-4-quinolinone] | 89.1% | 38% | 89.1% | 41% | 55% | 84.1% | 92.1% | 80.1% | 34.5% | 98.3% | > 160 mg/kg | 92.7% | 90.7%
5 | COc1ccc2c(=O)c(-c3ccccc3)c[nH]c2c1 [CRL8359, 7-Methoxy-3-phenyl-1,4-dihydro-4-quinolinone] | 59.9% | 30.9% | 123% | 41.2% | 73.9% | 65.8% | 41.2% | 114% | 25.8% | 140% | > 160 mg/kg | 52.2% | 34.7%
